From ChEMBL document CHEMBL1201862, “PubChem BioAssay data set” (2004) come the findings set out here.

Test systems include LXFL 529; KM-20L2; DLD-1; SNB-78; RXF 631; HOP-18; DMS-114; XF498; DMS-273.
What all share (test): NCI tumour cell line growth inhibition, 48 h

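Step 1: Grow cells in 96-well plates. Step 2: Expose to compound for 48 hours at 5 concentrations. Step 3: Interpolate endpoints linearly; if unreached, use highest concentration. The concentration for 50% growth inhibition is given as GI50.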 Calls of active or inactive are those of the source. Rule as the data show it: active = GI50 up to about 1.1 µM and inactive = higher.

On to `COC(=O)NC1C(C)OC(OC2C/C=C(/C)C3C=CC4C(OC5CC(OC6CCC(OC7CC(O)C(OC8CCC(O)C(C)O8)C(C)O7)C(C)O6)C(OC(C)=O)C(C)O5)C(C)CC(C)C4C3(C)/C(O)=C3/C(=O)OC4(CC(C=O)=CC(O)C4/C=C\2C)C3=O)CC1(C)[N+](=O)[O-]` (centres undefined), for which the GI50 with LXFL 529 was 0.352 µM (active); with KM-20L2, 1.29 µM (inactive); with DLD-1, 2.45 µM (inactive); with SNB-78 it was 1.82 µM (inactive); with RXF 631, 0.603 µM (active); in the assay with HOP-18, 2.15 µM (inactive). Besides, the values for the GI50 with DMS-114, in the assay on XF498 and in the assay with DMS-273 were 0.385 µM (active), 0.261 µM (active) and 1.27 µM (inactive), respectively.

With `COc1ccc(C2(Cl)C(Cl)(C(F)(F)F)C2(Cl)C(F)(F)F)cc1` (centres undefined), the GI50 in the assay on LXFL 529 is 13.9 µM (inactive); with KM-20L2, 15.6 µM (inactive); in the assay with DLD-1 it was 15.7 µM (inactive); in the assay with SNB-78, 14.7 µM (inactive); in the assay with RXF 631 it was 15.2 µM (inactive); in the assay on HOP-18 it was 15.3 µM (inactive). Moreover, the figures for the GI50 in the assay with DMS-114, in the assay with XF498 and in the assay on DMS-273 were 12.5 µM (inactive), 12.9 µM (inactive) and 14.3 µM (inactive), respectively.

Take `C/C(=N/O)c1sc(-c2nc(C)c(/C(C)=N\O)s2)nc1C`: the GI50 in the assay with LXFL 529, in the assay with KM-20L2, in the assay with DLD-1, in the assay with SNB-78, in the assay on RXF 631 and in the assay with HOP-18 was > 100 µM (inactive) each time. For the same molecule, the GI50 in the assay with DMS-114, in the assay on XF498 and in the assay on DMS-273 was > 100 µM (inactive) throughout.

On to `O=S(=O)(O)c1ccc(-c2c3nc(c(-c4ccc(S(=O)(=O)O)cc4)c4ccc([nH]4)c(-c4ccc(S(=O)(=O)O)cc4)c4nc(c(-c5ccc(S(=O)(=O)O)cc5)c5ccc2[nH]5)C=C4)C=C3)cc1`, for which the GI50 in the assay on LXFL 529 was > 100 µM (inactive); in the assay with KM-20L2, > 100 µM (inactive); in the assay with DLD-1, > 100 µM (inactive); with SNB-78, 44.6 µM (inactive); with RXF 631, 80.9 µM (inactive); with HOP-18 it was > 100 µM (inactive). The GI50 with DMS-114 is 40.2 µM (inactive); with XF498, > 100 µM (inactive); in the assay with DMS-273, 95.5 µM (inactive).

For `CC(=O)Oc1c(Br)ccc2cc(C(Br)Br)c(C(=O)c3ccccc3)nc12`, the GI50 in the assay on LXFL 529 is 30.6 µM (inactive); in the assay on KM-20L2 it was 19.4 µM (inactive); in the assay with DLD-1 it was 24 µM (inactive); in the assay on SNB-78 it was 27.7 µM (inactive); with RXF 631 it was 23.5 µM (inactive); in the assay with HOP-18, 17.2 µM (inactive). The GI50 in the assay on DMS-114 is 24.8 µM (inactive); in the assay on XF498, 14.8 µM (inactive); in the assay with DMS-273 it was 20.6 µM (inactive).

For `CCc1cccc(C)c1NC(=O)CC1Sc2ccccc2NC1=O` (centres undefined), the GI50 with LXFL 529 is 56.8 µM (inactive); with KM-20L2 it was 46.5 µM (inactive); in the assay on DLD-1 it was 28.4 µM (inactive); with SNB-78, 34.4 µM (inactive); in the assay with RXF 631, 35.8 µM (inactive); in the assay with HOP-18, 19.5 µM (inactive). Moreover, the GI50 was 57.3 µM (inactive) with DMS-114, 72.9 µM (inactive) with XF498 and 48.9 µM (inactive) in the assay with DMS-273.
